Entries after “also recorded” stand apart in the source; their conditions may differ.
Experiments:
mouse BMP-2 mRNA [1] = test: Semi-quantitative RT-PCR of BMP-2 mRNA in MSCs from OVX mice; type: cell-based; conditions: for BMP-2 mRNA expression, effect of the substance alone: E2 100 nM, ICI 10 μM, tamoxifen 1.0 μM, raloxifene 100 nM
Experimental: (§1) Two months old Swiss-Webster female mice (ICR) were OVX in accordance with mandated standards of humane care, and the animals were maintained in accordance with the NIH Guide for the Care and Use of Laboratory Animals. After 5 months post-surgery, bone marrow was isolated from femurs and tibias, and the MSCs were cultured as described previously (Gazit et al. 1999 and Zhou et al. 2001). The bone marrow cells were maintained in DMEM (Phenol red free, 1.0 g/L glucose, Biological Industries, Israel) with 15% FBS (Charcoal stripped, heat-inactivated), 100 units/ml penicillin, 100 μg/ml streptomycin, and 2 mM glutamine. At day 4, the cultures were supplemented with 50 μg/ml ascorbic acid, 10 mM β-glycerophosphate, and 10 nM dexamethasone. From day 10, the cells were cultured in DMEM with 2% charcoal stripped (CS)-FBS without osteogenic supplements. […] RNA then was isolated at day 12. […] Mouse C3H10T1/2 cells were cultivated in DMEM (Sigma and Biological Industries) with 10% FBS, 100 units/ml penicillin, 100 μg/ml streptomycin, and 2 mM glutamine.
RNA was isolated using TRizol Reagent (Life Technologies, USA), according to the manufacturer's protocol. Semi-quantitative RT-PCR was performed as described previously (Zhou et al. 2001). Mouse BMP-2 (505 bp) (Zhou et al. 2001), internal control RPL19 (190 bp) (Orly et al. 1994) and c-myc (550 bp) (Goswami et al. 1997) primers were described previously. The PCR conditions used for mouse BMP-2 RT-PCR were 30 cycles of 94 C for 1 min, 55 C for 1 min and 72 for 2 min in an MJ MiniCycler (MJ Research, USA). RT-PCR products of mouse BMP-2 were cloned into the pGEM-T Easy vector (A1360, Promega), and the pGEM-T-mouse BMP-2 vectors were sequenced by a T7 sequence sequencing kit (US70770, USB, Cleveland, USA) according to the manufacturer's protocols. DNA sequence analysis confirmed that mouse BMP-2 had been amplified.
All experiments were performed three to five times independently. Data re presented as the mean values±the standard error of the mean. The semi-quantitative RT-PCR and real-time RT-PCR were performed 3 times in independent experiments using total RNA that was isolated from MSCs derived from 3-6 animals each time. Quantitative data were analyzed using either the non-parameteric Mann-Whitney test or the ANOVA test.

mouse BMP-2 mRNA [2] = test: Real-time RT-PCR of BMP-2 mRNA in bone marrow MSCs from OVX mice; type: cell-based; conditions: 100 nM E2, 24 hr
Experimental: Two months old Swiss-Webster female mice (ICR) were OVX in accordance with mandated standards of humane care, and the animals were maintained in accordance with the NIH Guide for the Care and Use of Laboratory Animals. After 5 months post-surgery, bone marrow was isolated from femurs and tibias, and the MSCs were cultured as described previously (Gazit et al. 1999 and Zhou et al. 2001). The bone marrow cells were maintained in DMEM (Phenol red free, 1.0 g/L glucose, Biological Industries, Israel) with 15% FBS (Charcoal stripped, heat-inactivated), 100 units/ml penicillin, 100 μg/ml streptomycin, and 2 mM glutamine. […]
(§2) RNA was isolated using TRizol Reagent (Life Technologies, USA), according to the manufacturer's protocol. Semi-quantitative RT-PCR was performed as described previously (Zhou et al. 2001). […]
Real-Time PCR was performed using a Roche LightCycler according to the manufacturer's protocol (Roche Molecular Biochemicals, USA). […] Fluoresence was measured at 82° C. for 5 s. To quantify the copy number of the mouse BMP-2 mRNA in MSCs, pGEM-T-mouse BMP-2 plasmids ([…]) were used in standard curve.
All experiments were performed three to five times independently. […] The semi-quantitative RT-PCR and real-time RT-PCR were performed 3 times in independent experiments using total RNA that was isolated from MSCs derived from 3-6 animals each time. […]

human ERβ = human ERβ (Homo sapiens, UniProt Q92731); test: Mouse BMP-2 promoter-luciferase assay in C3H10T1/2 cells co-transfected with human ERβ; conditions: 24 hr; E2 different doses or 10 nM, raloxifene 100 nM, tamoxifen 1.0 μM, genistein 100 nM
human ERβ, sequence (Q92731 46-530 limits assumed): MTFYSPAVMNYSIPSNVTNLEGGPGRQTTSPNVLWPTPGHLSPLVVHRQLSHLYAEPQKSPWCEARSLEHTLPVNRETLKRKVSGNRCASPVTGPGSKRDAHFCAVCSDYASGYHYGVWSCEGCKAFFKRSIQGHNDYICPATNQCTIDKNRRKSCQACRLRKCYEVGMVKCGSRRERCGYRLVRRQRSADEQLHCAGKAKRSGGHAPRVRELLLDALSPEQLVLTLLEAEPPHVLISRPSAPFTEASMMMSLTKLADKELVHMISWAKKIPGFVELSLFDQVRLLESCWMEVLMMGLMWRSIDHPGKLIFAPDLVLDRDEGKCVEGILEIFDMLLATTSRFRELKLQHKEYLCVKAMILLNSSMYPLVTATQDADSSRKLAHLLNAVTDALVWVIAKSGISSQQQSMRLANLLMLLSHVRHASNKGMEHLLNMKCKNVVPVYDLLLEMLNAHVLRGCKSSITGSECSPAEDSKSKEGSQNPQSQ

c-myc mRNA = test: Semi-quantitative RT-PCR of c-myc mRNA in MSCs from OVX mice; type: cell-based, mouse; conditions: 5.0 μM cycloheximide
Experimental: as §1, §2

In the case of `CC/C(=C(\c1ccccc1)c1ccc(OCCN(C)C)cc1)c1ccccc1` [tamoxifen], the “BMP-2 mRNA expression, effect of the substance alone” value (from here on “BMP-2 mRNA expression, effect”) (mouse BMP-2 mRNA [1]; 24 hr) is reported as “failed to activate”.

`C[C@]12CC[C@@H]3c4ccc(O)cc4CC[C@H]3[C@@H]1CC[C@@H]2O` [E2, estradiol] was tested, and the “increase of mouse BMP-2 mRNA levels” value (mouse BMP-2 mRNA [2]; versus untreated) was 2.4 fold and the “mouse BMP-2 mRNA levels” value (mouse BMP-2 mRNA [2]; in 2 μg of total RNA, untreated 570±81 copies, p<0.05, ANOVA) was 1337±177 copies.

`C[C@]12CC[C@@H]3c4ccc(O)cc4C[C@@H](CCCCCCCCC[S+]([O-])CCCC(F)(F)C(F)(F)F)[C@H]3[C@@H]1CC[C@@H]2O` (stereo partly drawn) [ICI-182,780] was tested, and the “BMP-2 mRNA expression, effect” value (mouse BMP-2 mRNA [1]; 24 hr, listed as ICI) was “had no effect; also recorded: failed to activate” and the “effect on up-regulation of BMP-2 mRNA expression by E2” value (mouse BMP-2 mRNA [1]; ICI 10 μM with E2 100 nM, 24 hr, listed as ICI) was “blocked; also recorded: inhibited”.

In the case of `O=C(c1ccc(OCCN2CCCCC2)cc1)c1c(-c2ccc(O)cc2)sc2cc(O)ccc12` [raloxifene], the “BMP-2 mRNA expression, effect” value (mouse BMP-2 mRNA [1]; 24 hr) is reported as “failed to activate” and the “full-length mouse BMP-2 promoter (−2712) activity via ERβ” value (human ERβ) is reported as “not via ERβ”.

For `C[C@@H]1C[C@@H]([C@H](O)CC2CC(=O)NC(=O)C2)C(=O)[C@@H](C)C1` [cycloheximide], the “effect on up-regulation of BMP-2 mRNA by E2” value (mouse BMP-2 mRNA [1]; 5.0 μM cycloheximide added 45 min before 100 nM E2, RNA 4 hr after E2) was “did not block” and the “c-myc mRNA levels” value (c-myc mRNA) was “super-induction; also recorded: superinduction”.
